Patent US20240174603A1 (Rappta Therapeutics Oy, priority 2021, published 2024)

Each compound was assayed on LNCaP cells (assay: LNCaP cell viability assay (MTS)). Conditions: Homo sapiens, LNCaP, 48 h, LNCaP cell line.
Assay type: cell-based
Procedure, shortened: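 LNCaP cells (5000/well) treated 24 h after plating with compound at 1–80 µM for 48 h. Relative cell number read by MTS; GI50 from four-parameter variable-slope log(inhibitor) fit with bottom constrained to zero.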

Structure (SMILES) | GI50
O=S(=O)(NCC1(c2ccc(Cl)c(Cl)c2)CC1)c1ccc(Oc2ccc(C(F)(F)F)cc2)cc1 [Compound 231, N-((1-(3,4-dichlorophenyl)cyclopropyl)methyl)-4-(4-(trifluoromethyl)phenoxy)benzenesulfonamide] | 47.7 µM
CN(C)CC(NS(=O)(=O)c1ccc(F)cc1)c1ccc(Cl)c(Cl)c1 (stereo not shown) [Compound 130, N-(1-(3,4-dichlorophenyl)-2-(dimethylamino)ethyl)-4-fluorobenzenesulfonamide] | 62.4 µM
CN(C)CC(NS(=O)(=O)c1cccc(C(F)(F)F)c1)c1ccc(Cl)c(Cl)c1 (stereo not shown) [Compound 162, N-(1-(3,4-dichlorophenyl)-2-(dimethylamino)ethyl)-3-(trifluoromethyl)benzenesulfonamide] | 52.7 µM
CC(C)(C)OC(=O)NC[C@@H](NS(=O)(=O)c1ccc(OC(F)(F)F)cc1)c1ccccc1 [Compound 115, tert-butyl (S)-(2-phenyl-2-((4-(trifluoromethoxy)phenyl)sulfonamido)ethyl)carbamate] | 51.6 µM
CN(C)CC(NS(=N)(=O)c1ccc(OC(F)(F)F)cc1)c1ccc(Cl)c(Cl)c1 (single isomer, unassigned) [Compound 165a, N-(1-(3,4-dichlorophenyl)-2-(dimethylamino)ethyl)-4-(trifluoromethoxy)benzenesulfonimidamide] | 46.3 µM
COC(=O)[C@H](Cc1ccc(Cl)c(Cl)c1)NS(=O)(=O)c1ccc(OC(F)(F)F)cc1 [Compound 40, Methyl (S)-3-(3,4-dichlorophenyl)-2-((4-(trifluoromethoxy)phenyl)sulfonamido)propanoate] | 57.2 µM
CCc1ccc(C(CNS(=O)(=O)c2ccc(OC(F)(F)F)cc2)N2CCCC2)cc1 (stereo not shown) [Compound 28, N-(2-(4-ethylphenyl)-2-(pyrrolidine-1-yl)ethyl)-4-(trifluoromethoxy)benzenesulfonamide] | 55.8 µM
CN(C)CC(NS(=O)(=O)c1ccc(OC(F)(F)F)cc1)c1cccc(Cl)c1 (stereo not shown) [Compound 166, N-(1-(3-chlorophenyl)-2-(dimethylamino)ethyl)-4-(trifluoromethoxy)benzenesulfonamide] | 44.5 µM
CCOC(=O)C[C@@H](NS(=O)(=O)c1ccc(OC(F)(F)F)cc1)c1ccccc1Cl [Compound 14, Ethyl (R)-3-(2-chlorophenyl)-3-((4-(trifluoromethoxy)phenyl)sulfonamido)propanoate] | 51.9 µM
Cc1ccccc1C(CN(C)C)NS(=O)(=O)c1ccc(OC(F)(F)F)cc1 (stereo not shown) [Compound 150, N-(2-(dimethylamino)-1-(o-tolyl)ethyl)-4-(trifluoromethoxy)benzenesulfonamide] | 59.6 µM
CN(C)CC(NS(=O)(=O)c1ccc(C(=O)Nc2ccccc2)cc1)c1ccc(Cl)c(Cl)c1 (stereo not shown) [Compound 186, 4-(N-(1-(3,4-dichlorophenyl)-2-(dimethylamino)ethyl)sulfamoyl)-N-phenylbenzamide] | 48.2 µM
Cc1ccc(C2(CNS(=O)(=O)c3ccc(OC(F)(F)F)cc3)CC2)c(C)c1 [Compound 60, N-((1-(2,4-dimethylphenyl)cyclopropyl)methyl)-4-(trifluoromethoxy)benzenesulfonamide] | 44 µM
CC1CCN(C(CNS(=O)(=O)c2ccc(OC(F)(F)F)cc2)c2ccco2)CC1 (stereo not shown) [Compound 31, N-(2-(furan-2-yl)-2-(4-methylpiperidin-1-yl)ethyl)-4-(trifluoromethoxy)benzenesulfonamide] | 45.9 µM

Further lines, results first:

GI50 | Structure (SMILES)
10.7 µM | O=S(=O)(NCC1(c2ccc(Cl)c(Cl)c2)CCNC1)c1ccc(OC(F)(F)F)cc1 (stereo not shown) [Compound 253, N-((3-(3,4-dichlorophenyl)pyrrolidin-3-yl)methyl)-4-(trifluoromethoxy)benzenesulfonamide]
11.8 µM | CN(C)CC(NS(=O)(=O)c1ccc(Oc2ccccc2)cc1)c1ccc(Cl)cc1 (stereo not shown) [Compound 190, N-(1-(4-chlorophenyl)-2-(dimethylamino)ethyl)-4-phenoxybenzenesulfonamide]
21.1 µM | CN(C)CC(NS(=O)(=O)c1cccc(OC(F)(F)F)c1)c1ccc(Cl)c(Cl)c1 (stereo not shown) [Compound 128, N-(1-(3,4-dichlorophenyl)-2-(dimethylamino)ethyl)-3-(trifluoromethoxy)benzenesulfonamide]
42.5 µM | CC(C)(C)OC(=O)NC[C@H](NS(=O)(=O)c1ccc(OC(F)(F)F)cc1)c1ccccc1 [Compound 114, tert-butyl (R)-(2-phenyl-2-((4-(trifluoromethoxy)phenyl)sulfonamido)ethyl)carbamate]
38 µM | O=S(=O)(NCC1(c2cccs2)CCCC1)c1ccc(OC(F)(F)F)cc1 [Compound 61, N-((1-(thiophen-2-yl)cyclopentyl)methyl)-4-(trifluoromethoxy)benzenesulfonamide]
11.3 µM | CCCCc1ccc(S(=O)(=O)NC(CN(C)C)c2ccc(Cl)c(Cl)c2)cc1 (stereo not shown) [Compound 214, 4-butyl-N-(1-(3,4-dichlorophenyl)-2-(dimethylamino)ethyl)benzenesulfonamide]
38.5 µM | CN(C)C(=O)C(NS(=O)(=O)c1ccc(OC(F)(F)F)cc1)c1ccc(Cl)c(Cl)c1 (stereo not shown) [Compound 255, 2-(3,4-dichlorophenyl)-N,N-dimethyl-2-((4-(trifluoromethoxy)phenyl)sulfonamido)acetamide]
43.4 µM | O=S(=O)(N[C@H](CO)c1ccc(Cl)c(Cl)c1)c1ccc(OC(F)(F)F)cc1 [Compound 122, (S)—N-(1-(3,4-dichlorophenyl)-2-hydroxyethyl)-4-(trifluoromethoxy)benzenesulfonamide]
30.9 µM | CN(C)CC(NS(=O)(=O)/C=C/c1ccccc1)c1ccc(Cl)c(Cl)c1 (stereo not shown) [Compound 174, (E)-N-(1-(3,4-dichlorophenyl)-2-(dimethylamino)ethyl)-2-phenylethene-1-sulfonamide]
30.9 µM | CC(O)COc1ccccc1CNS(=O)(=O)c1ccc(OC(F)(F)F)cc1 (stereo not shown) [Compound 11, N-(2-(2-hydroxypropoxy)benzyl)-4-(trifluoromethoxy)benzenesulfonamide]
18 µM | CC1(C)CC1(CNS(=O)(=O)c1ccc(OC(F)(F)F)cc1)c1ccc(F)cc1F (stereo not shown) [Compound 84, N-((1-(2,4-difluorophenyl)-2,2-dimethylcyclopropyl)methyl)-4-(trifluoromethoxy)benzenesulfonamide]
21.9 µM | CN(C)CC(NS(=O)(=O)c1ccc(Oc2ccccc2C(F)(F)F)cc1)c1ccc(Cl)c(Cl)c1 (stereo not shown) [Compound 238, N-(1-(3,4-dichlorophenyl)-2-(dimethylamino)ethyl)-4-(2-(trifluoromethyl)phenoxy)benzenesulfonamide]
19.5 µM | CN(C)CC(NS(=O)(=O)c1ccc(OC(F)(F)F)cc1)c1ccc(Cl)c(Cl)c1 (stereo not shown) [Compound 147, N-(1-(3,4-dichlorophenyl)-2-(dimethylamino)ethyl)-4-(trifluoromethoxy)benzenesulfonamide]
34.6 µM | CCc1ccc(S(=O)(=O)NC(CN(C)C)c2ccc(Cl)c(Cl)c2)cc1 (stereo not shown) [Compound 212, N-(1-(3,4-dichlorophenyl)-2-(dimethylamino)ethyl)-4-ethylbenzenesulfonamide]

Same assay, conditions: LNCaP cell line, 48 hours

GI50 | Structure (SMILES)
6.04 µM | CN(C)CC(NS(=O)(=O)c1ccc(Oc2ccc(C(F)(F)F)cc2)cc1)c1ccc(Cl)c(Cl)c1 (single isomer, unassigned) [Compound 172, N-(1-(3,4-dichlorophenyl)-2-(dimethylamino)ethyl)-4-(4-(trifluoromethyl)phenoxy)benzenesulfonamide]
